Experimental data taken from patent US11779014B2, “Adjuvants” (SYNGENTA PARTICIPATIONS AG, priority 2017, dated 2023).
Each block holds one compound with its values, some of them ahead of it.

What was measured:
[1] = Cloud point measurement (absorbance at 500 nm as a function of temperature); assay type: physicochemical
Protocol: Consistent with the standard method for measuring the cloud point of surfactants, the cloud point of each of the above blends was measured at a total concentration of 1% w/w in water using a Perkin Elmer spectrophotometer fitted with a PTP6 temperature controller. The absorbance of the solution at 500 nm wavelength was determined as a function of temperature. The cloud point was recorded as the onset of a rapid increase in absorbance as the solution began to cloud.
Cloud point—the measurements relied on the same method as for ‘Example 1’
Cloud points—were measured using the same method as in Example 1.
(§1) This example provides de-gelling, cloud point and adjuvancy data for dodecyl 23 ethoxylate with n-hexyl cap and hexadecyl 20 ethoxylate with n-hexyl cap Cloud points were measured as described in example 1 for 1% aqueous solutions of the capped and uncapped surfactants both individually and as blends (see Table 30). Degelling temperatures were also measured as outlined in example 1 for 25, 30, 35 and 40% aqueous solutions of the capped and uncapped surfactants both individually and as blends (see Table 31).
(§2) This example provides de-gelling, cloud point and adjuvancy data for oleyl 20 ethoxylate with n-butyl, n-pentyl or benzyl ether caps end capped oleyl 20 ethoxylate. Cloud points were measured as described in example 1 for 1% aqueous solutions of the capped and uncapped surfactants both individually and as blends. Degelling temperatures were also measured as outlined in example 1 for 25, 30, 35 and 40% aqueous solutions o of the capped and uncapped surfactants both individually and as blends.

[2] = De-gelling temperature of aqueous surfactant blends by low shear rheology (Bohlin Gemini rheometer, storage modulus vs temperature); assay type: physicochemical
Protocol: The temperatures at which blends of capped and uncapped surfactants de-gel were determined by standard low shear rheology with a Bohlin™ Gemini rheometer. The storage modulus (G′) at 1 Hz was determined at a strain of 0.001-0.002 in a standard C14 cup and bob geometry over a temperature range of 5-70° C., the exact range depending on the de-gelling point of the sample. Plots of storage modulus versus temperature were constructed and the de-gelling temperature was taken to be the point at which the modulus begins to fall rapidly from its high value in the gelled state (typically ca. 10^5 Pa) down to the final value in the de-gelled state (less than 10 Pa). Blends of surfactants were prepared at from 25 to 40% w/w total surfactant concentration in water. Samples were left in an oven at 55° C. for several days to ensure that the mixtures were homogeneous. Samples were placed in the C14 cup and the samples were de-gelled by raising the temperature in the rheometer, the bob was then inserted and the sample was then cooled at 1° C./min, whilst the storage modulus was regularly recorded during the cooling. Once the final temperature had been reached (i.e. when the sample had gelled), the temperature was then increased again and the modulus again recorded. The de-gelling temperature was determined from the increasing temperature cycle.
Degelling temperatures—the measurements relied on the same method as for ‘Example 1’ but just at 30% w/w total surfactant concentration.
De-gelling temperatures were measured using the same method as in Example 1.
as §1, §2

Avena fatua (AVEFA) = experiment: Glasshouse adjuvancy test for pinoxaden on AVEFA; assay type: in vivo; conditions: pinoxaden 15 g ai/ha, total surfactant 0.2% w/v, 21 days
Protocol: The efficacy of 1:1 blends of oleyl 20EO with oleyl 20EO with either n-hexanoyl, n-octanoyl or 2-ethyl hexanoyl ester caps as adjuvants for the herbicide pinoxaden was tested in a glasshouse against two weed species, sown into standard soil in pots and cultivated under controlled conditions in a glasshouse (20/16° C. day/night; 16 hours light; 65% humidity). Pinoxaden was added to the spray tank as a standard EC (emulsifiable concentrate) formulation. The plants were sprayed with pinoxaden at rates of 7.5 or 15 grams of pesticide per hectare using a laboratory track sprayer which delivered the aqueous spray composition at a rate of 200 litres per hectare, using a flat fan nozzle (Teejet 11002VS) at 2 bar. The spray solutions also contained the oleyl 20EO alone or in the 1:1 blends with the capped surfactants. The adjuvants were added to the spray solution at a total surfactant rate of 0.2% w/v. All spray solutions also contained 10% w/w of iso-propanol. The weed species and their BBCH growth stage at spraying were Avena fatua (AVEFA; growth stage 13) and Setaria viridis (SETVI; growth stage 13). Each spray test was replicated three times. The test plants were then grown in a glasshouse under controlled conditions (20/16° C. day/night; 16 hours light; 65% humidity) and watered twice a day. The efficacy of the herbicide was assessed visually and expressed as a percentage of the leaf area killed. Samples were assessed at a time period of 21 days following application.
Dodecyl 23EO and hexadecyl 20EO were capped with an n-hexyl ether cap. The efficacy of 1:1 blends of these with their uncapped counterparts were tested as adjuvants for the herbicide pinoxaden was tested in a glasshouse against two weed species, sown into standard soil in pots and cultivated under controlled conditions in a glasshouse (20/16° C. day/night; 16 hours light; 65% humidity). Pinoxaden was added to the spray tank as a standard EC (emulsifiable concentrate) formulation. The plants were sprayed with pinoxaden at a.i. rates of 7.5 or 15 grams per hectare using a laboratory track sprayer which delivered the aqueous spray composition at a rate of 200 litres per hectare, using a flat fan nozzle (Teejet 11002VS) at 2 bar. The spray solutions tested included the capped and uncapped alone or in the 1:1 blends with the capped surfactants. The adjuvants were added to the spray solution at a total surfactant rate of 0.2% w/v. All spray solutions also contained 10% w/w of iso-propanol. The weed species and their BBCH growth stage at spraying was Avena fatua (AVEFA; growth stage 12). Each spray test was replicated three times. The test plants were then grown in a glasshouse under controlled conditions (20/16° C. day/night; 16 hours light; 65% humidity) and watered twice a day. The efficacy of the herbicide was assessed visually and expressed as a percentage of the leaf area killed. Samples were assessed at a time period of 21 days following application.
Oleyl 20EO was capped with -butyl, n-pentyl and n-benzyl caps. The efficacy of 1:1 blends of these with their uncapped counterparts were tested as adjuvants for the herbicide pinoxaden was tested in a glasshouse against two weed species, sown into standard soil in pots and cultivated under controlled conditions in a glasshouse (20/16° C. day/night; 16 hours light; 65% humidity). Pinoxaden was added to the spray tank as a standard EC (emulsifiable concentrate) formulation. The plants were sprayed with pinoxaden at a.i. rates of 7.5 or 15 grams per hectare using a laboratory track sprayer which delivered the aqueous spray composition at a rate of 200 litres per hectare, using a flat fan nozzle (Teejet 11002VS) at 2 bar. The spray solutions tested included the capped and uncapped alone or in the 1:1 blends with the capped surfactants. The adjuvants were added to the spray solution at a total surfactant rate of 0.2% w/v. All spray solutions also contained 10% w/w of iso-propanol.

[3] = tested on: Digitaria sanguinalis (DIGSA); experiment: Glasshouse adjuvancy test for nicosulfuron on DIGSA; assay type: in vivo
Protocol: (§3) The biological efficacies of blends of an oleyl 20 ethoxylate uncapped surfactant with an oleyl 20 ethoxylate surfactant with an n-hexyl ether cap as adjuvants for the herbicide nicosulfuron were tested in a glasshouse against three weed species sown into standard soil in pots and cultivated under controlled conditions in a glasshouse (24/18° C. day/night; 16 hours light; 65% humidity). Nicosulfuron was added to the spray tank as a standard WG (water dispersible granule) formulation. The plants were sprayed with nicosulfuron at rates of 15 or 60 grams of pesticide per hectare using a laboratory track sprayer which delivered the aqueous spray composition at a rate of 200 litres per hectare, using a flat fan nozzle (Teejet 11002VS) at 2 bar. The adjuvants were added to the spray solution at a total rate of 0.1 or 0.2% w/v in all cases and at extra lower rates for the oleyl 20EO alone and its 1:1 blend with the oleyl 20EO n-hexyl ether to show the dose response to these adjuvants. All spray solutions also contained 10% w/w of iso-propanol. The weed species and their BBCH growth stage at spraying were Chenopodium album (CHEAL; growth stage 15), Digitaria sanguinalis (DIGSA; growth stage 14), and Commelina benghalensis (COMBE; growth stage 14). Each spray test was replicated three times. The test plants were then grown in a glasshouse under controlled conditions (24/18° C. day/night; 16 hours light; 65% humidity) and watered twice a day. The efficacy of the herbicide was assessed visually and expressed as a percentage of the leaf area killed. Samples were assessed at a time period of 21 days following application. The following tables (3-8) show the effect of blends of the two surfactants at a total concentration of 0.2 and 0.1%. In each case the blends were 1:0, 3:1, 1:1, 1:3 and 0:1 w/w of oleyl 20EO:oleyl 20 EO n-hexyl ether. The biological efficacies of blends of oleyl 20 ethoxylate and oleyl 20EO ethoxylate with a benzoate cap as adjuvants for the herbicide nicosulfuron were tested in a glasshouse using the same method as for ‘Example 1’ but against just two weed species and with just 0.2% w/v total adjuvant concentration. The weed species and their BBCH growth stage at spraying HI were Chenopodium album (CHEAL; growth stage 13-15) and Digitaria sanguinalis (DIGSA; growth stage 14-22).

[4] = tested on: Chenopodium album (CHEAL); experiment: Glasshouse adjuvancy test for nicosulfuron on CHEAL; assay type: in vivo
Protocol: as §3, with “ether.” for “ether. The biological efficacies of blends of oleyl 20 ethoxylate and oleyl 20EO ethoxylate with a benzoate cap as adjuvants for the herbicide nicosulfuron were tested in a glasshouse using the same method as for ‘Example 1’ but against just two weed species and with just 0.2% w/v total adjuvant concentration. The weed species and their BBCH growth stage at spraying HI were Chenopodium album (CHEAL; growth stage 13-15) and Digitaria sanguinalis (DIGSA; growth stage 14-22).”
The biological efficacies of blends of oleyl 20 ethoxylate and oleyl 20EO ethoxylate with a benzoate cap as adjuvants for the herbicide nicosulfuron were tested in a glasshouse using the same method as for ‘Example 1’ but against just two weed species and with just 0.2% w/v total adjuvant concentration. The weed species and their BBCH growth stage at spraying HI were Chenopodium album (CHEAL; growth stage 13-15) and Digitaria sanguinalis (DIGSA; growth stage 14-22).
The biological efficacies of 1:1 blends of an oleyl 20 ethoxylate uncapped surfactant with oleyl 20E ethoxylate surfactants with hexanoyl, n-octanoyl or 2-ethyl hexanoyl ester caps as adjuvants for the herbicide nicosulfuron were tested in a glasshouse using the same method as for ‘Example 1’ but against just one weed species and at 0.2% w/v tital adjuvant concentration. The weed species and its BBCH growth stage at spraying was Chenopodium album (CHEAL; growth stage 15).

[5] = total surfactant concentration 25% w/w, Table 31
[6] = total surfactant concentration 30% w/w, Table 31
[7] = total surfactant concentration 35% w/w, Table 31
[8] = total surfactant concentration 40% w/w, Table 31
[9] = dose response, nicosulfuron 15 g ai/ha, adjuvant 0%
[10] = dose response, nicosulfuron 60 g ai/ha, adjuvant 0%

Compound: Dodecyl 23EO n-hexyl ether
- Cloud point ([1]; 1% aqueous solutions, Table 30): 67.2 °C
- De-gelling temperature [2, 5]: <5 °C
- De-gelling temperature [2, 6]: <5 °C
- De-gelling temperature [2, 7]: <5 °C
- De-gelling temperature [2, 8]: 7.4 °C
- Mean control (Avena fatua (AVEFA); Example 7, growth stage 12): 86%

Compound: Oleyl 20EO n-butyl ether
- Mean control (Avena fatua (AVEFA); Example 9, growth stage 12): 96.3%

Compound: COc1cc(OC)nc(NC(=O)NS(=O)(=O)c2ncccc2C(=O)N(C)C)n1 [nicosulfuron]
- Mean control [3, 9]: 4.0%
- Mean control [3, 10]: 33.3%
- Mean control [4, 9]: 4.0%
- Mean control [4, 10]: 8.3%

The next lines start with results.

- Cloud point ([1]; 1% aqueous solutions, Table 30): >90.0 °C
- De-gelling temperature [2, 5]: 23.2 °C
- De-gelling temperature [2, 6]: 48.7 °C
- De-gelling temperature [2, 7]: 66.1 °C
- De-gelling temperature [2, 8]: 74.1 °C
Compound: CCCCCCCCCCCCCCCCOCCOCCOCCOCCOCCOCCOCCOCCOCCOCCOCCOCCOCCOCCOCCOCCOCCOCCOCCOCCO [Hexadecyl 20EO, hexadecyl 20 ethoxylate]
- Mean control (Avena fatua (AVEFA); Example 7, growth stage 12): 90.3%

- Cloud point ([1]; 1%, Table 20): 28.0 °C
- Degelling temperature ([2]; total surfactant concentration 40% w/w, Table 18): 13.6 °C
Compound: CCCCCCCC/C=C\CCCCCCCCOCCOCCOCCOCCOCCOCCOCCOCCOCCOCCOCCOCCOCCOCCOCCOCCOCCOCCOCCOCCOC(=O)CCCCC [Oleyl 20EO n-hexanoyl ester, oleyl 20EO n-hexanoyl ester]

- Cloud point ([1]; 1%, Table 15): 27.3 °C
- De-gelling temperature ([2]; 30% w/w total surfactant concentration, Table 15): <3.8 °C
Compound: CCCCCCCC/C=C\CCCCCCCCOCCOCCOCCOCCOCCOCCOCCOCCOCCOCCOCCOCCOCCOCCOCCOCCOCCOCCOCCOCCOC(=O)c1ccccc1 [Oleyl 20EO benzoate, oleyl 20 ethoxylate benzoate]
- Mean control ([3]; nicosulfuron 15 g ai/ha, 0.2% w/v total adjuvant, Example 3, growth stage 14-22): 96.7%
- Mean control ([3]; nicosulfuron 60 g ai/ha, 0.2% w/v total adjuvant, Example 3, growth stage 14-22): 99.3%
- Mean control ([4]; nicosulfuron 15 g ai/ha, 0.2% w/v total adjuvant, Example 3, growth stage 13-15): 75.0%
- Mean control ([4]; nicosulfuron 60 g ai/ha, 0.2% w/v total adjuvant, Example 3, growth stage 13-15): 81.7%

- De-gelling temperature ([2]; 40% w/w, Table 19): 16.5 °C
Compound: CCCCCCCC/C=C\CCCCCCCCOCCOCCOCCOCCOCCOCCOCCOCCOCCOCCOCCOCCOCCOCCOCCOCCOCCOCCOCCOCCOC(=O)CCCCCCC [Oleyl 20EO n-octanoyl ester, oleyl 20EO n-octanoyl ester]
